Consider 19 molecules from patent publication US7713994B2 (Wyeth LLC, priority 2005, dated 2010).

One test deals with BT474. As to the kind of experiment: Cytotoxicity assay (SRB), BT474. The test is classed as cell-based. As to conditions: Homo sapiens, BT-474, 144 h, read-out: In Vitro Cellular Activity IC50 BT474. How it is done: (§1) BT474, HCT-116, LoVo and MCF-7 were maintained under 7% CO2 in RPMI 1640 medium supplemented with 10% fetal bovine serum and 50 µg/ml gentamicin.
(§2) Cells were plated in 96-well microtiter dishes (12000 cells/well for BT474, 4000 cells/well for HCT-116, 6000 cells/well for LoVo and 6000 cells/well for MCF-7) in RPMI 1640 medium containing 5% fetal bovine serum and 50 µg/ml gentamicin. The cells were allowed to incubate overnight at 37° C., 7% CO2. Compound dilutions were prepared using the same medium. HCT-116, LoVo and MCF-7 cells were cultured for three days and BT474 cells were cultured for 6 days, in the presence of each compound dilution. Untreated cells were included as controls. The percentage of surviving cells was determined using a protein binding dye (sulforhodamineB, SRB) assay. Cellular protein was precipitated in each well by the addition of 0.05 ml of 50% cold trichloroacetic acid (TCA). After 1 hour, the plates were washed extensively in dH2O and dried. The sulforhodamineB dye solution (0.08 mL of 0.4% SRB in 1% acetic acid) was added to each well, kept at room temperature for ten minutes, then washed in 1% acetic acid and dried. The dye was dissolved in 10 mM Tris-HCl (150 uL) and the absorbency read at 540 nm.

Another test concerns HCT-116. Description: Cytotoxicity assay (SRB), HCT-116. The test is classed as cell-based. The note with it: Homo sapiens, HCT-116, 72 h, read-out: In Vitro Cellular Activity IC50 HCT116. How it is done: as §1, §2
The test system of another test is LoVo. As to the kind of experiment: Cytotoxicity assay (SRB), LoVo. It counts as cell-based. The note with it: Homo sapiens, LoVo, 72 h, read-out: In Vitro Cellular Activity IC50 LOVO. Here is the method: as §1, §2
For a further test, the system named is MCF-7. Description: Cytotoxicity assay (SRB), MCF-7. The test is classed as cell-based. The note with it: Homo sapiens, MCF7, 72 h, read-out: In Vitro Cellular Activity IC50 MCF-7. Here is the method: as §1, §2
In another test the target is T1, cyclin D1/cdk 4 enzyme (Homo sapiens, UniProt P11802).
T1 construct: made in house; host or cells: Sf9 insect cells, recombinant baculovirus
Description: CDK4 ELISA kinase assay (phospho-Rb ser 795 detection). As to conditions: In Vitro Enzyme Assay, cyclin D1/cdk 4, read-out: CDK4 IC50. It counts as biochemical. The procedure, abridged:
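Partially purified Sf9-expressed cyclin D1/CDK4, cyclin E/CDK2 or cyclin B/CDK1 phosphorylated plate-bound GST-Rb C-terminal fragment with 200 μM ATP at 30° C for 1 h.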
(An ELISA detects its analyte on a solid surface through an enzyme-linked reagent.)

Like-named read-outs stand apart in the source and are kept apart here.

T1 sequence (P11802 whole entry, species assumed): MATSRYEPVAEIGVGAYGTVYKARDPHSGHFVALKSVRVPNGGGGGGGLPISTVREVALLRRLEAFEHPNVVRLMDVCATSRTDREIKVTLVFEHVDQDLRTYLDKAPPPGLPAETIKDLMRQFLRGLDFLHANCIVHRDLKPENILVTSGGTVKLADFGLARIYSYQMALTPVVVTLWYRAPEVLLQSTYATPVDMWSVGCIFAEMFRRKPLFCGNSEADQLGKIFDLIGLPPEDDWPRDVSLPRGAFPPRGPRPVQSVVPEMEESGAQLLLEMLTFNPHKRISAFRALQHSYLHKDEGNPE
T1 sequence (P24385 whole entry partner, species assumed): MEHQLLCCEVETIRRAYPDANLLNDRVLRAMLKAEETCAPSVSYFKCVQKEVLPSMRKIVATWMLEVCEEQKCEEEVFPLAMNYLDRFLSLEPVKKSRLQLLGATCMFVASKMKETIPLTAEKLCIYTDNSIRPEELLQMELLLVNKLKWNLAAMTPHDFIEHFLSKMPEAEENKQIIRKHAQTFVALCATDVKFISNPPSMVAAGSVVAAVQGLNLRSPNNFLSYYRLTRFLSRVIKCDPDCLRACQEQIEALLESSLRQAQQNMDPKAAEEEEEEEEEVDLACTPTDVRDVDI

`CCOP(=O)(OCC)c1ccc2c(c1)/C(=C/Nc1ccc(N3CCN(C)CC3)cc1)C(=O)NC2=O` [Example 284, Diethyl [(4Z)-4-({[4-(4-methylpiperazin-1-yl)phenyl]amino}methylene)-1,3-dioxo-1,2,3,4-tetrahydroisoquinolin-6-yl]phosphonate]: the IC50 (commonly the concentration that inhibits the measured activity by half) in the test on BT474 is above 50 µM; in the test with HCT-116 it was 20 µM; in the test on LoVo, 25 µM; in the test with MCF-7 it was 12 µM.
For the molecule `CC(C)(C)OC(=O)N1CCN(c2ccc(N/C=C3\C(=O)NC(=O)c4ccc(Br)cc43)cc2)CC1` [Example 294, tert-Butyl 4-(4-{[(Z)-(6-bromo-1,3-dioxo-2,3-dihydroisoquinolin-4(1H)-ylidene)methyl]amino}phenyl)piperazine-1-carboxylate], the IC50 in the test on BT474 (BT474 cells, SRB, 6 days) was 49 µM; in the test with HCT-116 (HCT116 cells, SRB, three days) it was 9 µM; in the test with LoVo (LoVo cells, SRB, three days) it was above 50 µM; in the test on MCF-7 (MCF-7 cells, SRB, three days), 24 µM.
Taken in the same sequence, the figures for `O=C1NC(=O)c2ccc(Br)cc2/C1=C/NCc1ccc(NC(=O)C(Cl)Cl)cc1` [Example 302, N-[4-({[(Z)-(6-Bromo-1,3-dioxo-2,3-dihydroisoquinolin-4(1H)-ylidene)methyl]amino}methyl)phenyl]-2,2-dichloroacetamide] were 0.56 µM, 0.55 µM, 0.59 µM and 1.2 µM.
Regarding `O=C1NC(=O)c2ccc(Br)cc2C1=CNc1ccc(-c2ccncc2)cc1` [Example 329, 6-Bromo-4-[(4-pyridin-4-yl-phenylamino)-methylene]-4H-isoquinoline-1,3-dione], the IC50 in the test with BT474 (BT474 cells, SRB, 6 days) amounted to 18.5 µM; in the test with HCT-116 (HCT116 cells, SRB, three days), 4.7 µM; with LoVo (LoVo cells, SRB, three days) it was 30 µM; in the test with MCF-7 (MCF-7 cells, SRB, three days), 14 µM.
The like results for `CC(C)(C)OC(=O)N1CCN(c2ccc(N/C=C3\C(=O)NC(=O)c4ccc(I)cc43)cc2)CC1` [Example 377, tert-Butyl 4-(4-{[(Z)-(6-iodo-1,3-dioxo-2,3-dihydroisoquinolin-4(1H)-ylidene)methyl]amino}phenyl)piperazine-1-carboxylate] were, in that order, above 50 µM, 11 µM, above 50 µM and above 50 µM.
Turning to `O=C1NC(=O)c2ccc(I)cc2/C1=C/Nc1ccc(C2=NCCC2)cc1` [Example 403, 4-{[4-(4,5-Dihydro-3H-pyrrol-2-yl)-phenylamino]-methylene}-6-iodo-4H-isoquinoline-1,3-dione], the IC50 was 40 µM with BT474 (BT474 cells, 6 days, SRB); 41.5 µM in the test on HCT-116 (HCT116 cells, 3 days, SRB); above 50 µM in the test with LoVo (LoVo cells, 3 days, SRB); above 50 µM in the test with MCF-7 (MCF-7 cells, 3 days, SRB).
On to `CC(C)(C)OC(=O)N1CCN(c2ccc(N/C=C3\C(=O)NC(=O)c4ccc(I)cc43)cn2)CC1` [Example 409, tert-Butyl 4-(5-{[(Z)-(6-iodo-1,3-dioxo-2,3-dihydroisoquinolin-4(1H)-ylidene)methyl]amino}pyridin-2-yl)piperazine-1-carboxylate], for which the IC50 with BT474 (BT474 cells, 6 days, SRB) was 41.6 µM; in the test on HCT-116 (HCT116 cells, 3 days, SRB), 25.6 µM; with LoVo (LoVo cells, 3 days, SRB), 6.4 µM; in the test on MCF-7 (MCF-7 cells, 3 days, SRB), 36.6 µM.
Taken in the same sequence, the figures for `CN1CCN(c2ccc(N/C=C3\C(=O)NC(C)(C)c4ccc(Br)cc43)cc2)CC1` [Example 452, 6-Bromo-1,1-dimethyl-4-{[4-(4-methyl-piperazin-1-yl)-phenylamino]-methylene}-1,4-dihydro-2H-isoquinolin-3-one] were 9.3 µM, 3.1 µM, 1.5 µM and 3.3 µM.
Taken in the same sequence, the figures for `CN1CCN(c2ccc(N/C=C3\C(=O)NC(C)(C)c4ccc(-c5ccoc5)cc43)cc2)CC1` [Example 458, 6-Furan-3-yl-1,1-dimethyl-4-{[4-(4-methyl-piperazin-1-yl)-phenylamino]-methylene}-1,4-dihydro-2H-isoquinolin-3-one] were 3.5 µM, 2.7 µM, 1.2 µM and 4.2 µM.
With `CC(C)(C)OC(=O)N1CCCC1c1ccc(N/C=C2\C(=O)NC(=O)c3ccc(I)cc32)cc1` (centres unmarked) [Example 461, 2-{4-[(6-Iodo-1,3-dioxo-2,3-dihydro-1H-isoquinolin-4-ylidenemethyl)-amino]-phenyl}-pyrrolidine-1-carboxylic acid tert-butyl ester], the IC50 amounted to 7.7 µM in the test with BT474 (BT474 cells, 6 days, SRB); 22.8 µM in the test on HCT-116 (HCT116 cells, 3 days, SRB); 24.1 µM in the test on LoVo (LoVo cells, 3 days, SRB); 23.3 µM in the test on MCF-7 (MCF-7 cells, 3 days, SRB).
Taken in the same sequence, the figures for `COc1cnc(CN/C=C2\C(=O)NC(=O)c3ccc(I)cc32)nc1O` [Example 479, 4-{[(4-Hydroxy-5-methoxy-pyrimidin-2-ylmethyl)-amino]-methylene}-6-iodo-4H-isoquinoline-1,3-dione] were 43 µM, above 50 µM, above 50 µM and above 50 µM.
The like results for `O=C1NC(=O)c2ccc(I)cc2/C1=C/NCc1ccc(-c2ccccn2)c(O)c1` [Example 509, 4-[(3-Hydroxy-4-pyridin-2-yl-benzylamino)-methylene]-6-iodo-4H-isoquinoline-1,3-dione] were, in that order, 0.13 µM, 0.25 µM, 0.19 µM and 0.54 µM.
Taken in the same sequence, the figures for `O=C1NC(=O)c2ccc(I)cc2/C1=C/NCc1ccc(-c2ccncc2)c(O)c1` [Example 511, 4-[(3-Hydroxy-4-pyridin-4-yl-benzylamino)-methylene]-6-iodo-4H-isoquinoline-1,3-dione] were 2.5 µM, 2.3 µM, 2.5 µM and 1.5 µM.
Consider `N#CCc1ccc(NC=C2C(=O)NC(=O)c3ccc(-c4cc5ccccc5o4)cc32)cc1` [Example 626, {4-[(6-Benzofuran-2-yl-1,3-dioxo-2,3-dihydro-1H-isoquinolin-4-ylidenemethyl)-amino]-phenyl}-acetonitrile], for which the IC50 is 3.7 µM on cyclin D1/cdk 4 enzyme; above 50 µM with BT474 (BT474 cells, 6 days, SRB); above 50 µM in the test with HCT-116 (HCT116 cells, 3 days, SRB); above 50 µM with LoVo (LoVo cells, 3 days, SRB); 34.1 µM in the test on MCF-7 (MCF-7 cells, 3 days, SRB).
Take `O=C1NCc2cc(Cl)ccc2C1=CNc1cccc(O)c1` [Example 856, 7-Chloro-4-[(3-hydroxy-phenylamino)-methylene]-1,4-dihydro-2H-isoquinolin-3-one]: the IC50 in the test on BT474 (BT474 cells, 6 days, SRB) was determined as 5.6 µM; in the test with HCT-116 (HCT116 cells, 3 days, SRB) it was 12.2 µM; in the test with LoVo (LoVo cells, 3 days, SRB), 13.5 µM; in the test on MCF-7 (MCF-7 cells, 3 days, SRB) it was 3.8 µM.
In the case of `Cc1ccc2c(c1)CNC(=O)C2=CNc1ccc(N2CCOCC2)cc1` [Example 858, 7-Methyl-4-[(4-morpholin-4-yl-phenylamino)-methylene]-1,4-dihydro-2H-isoquinolin-3-one], the IC50 in the test on BT474 (BT474 cells, 6 days, SRB) turned out to be 34.3 µM; in the test with HCT-116 (HCT116 cells, 3 days, SRB), 37.7 µM; in the test with LoVo (LoVo cells, 3 days, SRB) it was 39 µM; with MCF-7 (MCF-7 cells, 3 days, SRB), 34.7 µM.
The like results for `O=C1NCc2ccccc2C1=CNc1cccc(O)c1` [Example 859, 4-[(3-Hydroxy-phenylamino)-methylene]-1,4-dihydro-2H-isoquinolin-3-one] were, in that order, 31.2 µM, 40.4 µM, 40 µM and 20.6 µM.
Take `O=C1NCc2ccccc2C1=CNc1ccc(N2CCCCC2)cc1` [Example 860, 4-[(4-Piperidin-1-yl-phenylamino)-methylene]-1,4-dihydro-2H-isoquinolin-3-one]: the IC50 with BT474 (BT474 cells, 6 days, SRB) turned out to be 35.2 µM; with HCT-116 (HCT116 cells, 3 days, SRB) it was 33 µM; in the test with LoVo (LoVo cells, 3 days, SRB), 36.1 µM; with MCF-7 (MCF-7 cells, 3 days, SRB) it was 40 µM.
For `COC(=O)Oc1cc(CN/C=C2\C(=O)NC(=O)c3ccc(Br)cc32)ccc1OC` [compound 83, 5-({[(Z)-(6-Bromo-1,3-dioxo-2,3-dihydroisoquinolin-4(1H)-ylidene)methyl]amino}methyl)-2-methoxyphenyl methyl carbonate], the IC50 is 3.2 µM in the test on BT474 (BT474 cells, SRB, 6 days); 4.5 µM in the test with HCT-116 (HCT116 cells, SRB, three days); 2.6 µM in the test with LoVo (LoVo cells, SRB, three days); 29.9 µM in the test on MCF-7 (MCF-7 cells, SRB, three days).
